The record followed here is ChEMBL document CHEMBL4811240, “Discovery of N-substituted sulfamoylbenzamide derivatives as novel inhibitors of STAT3 signaling pathway based on Niclosamide” (Eur J Med Chem, 2021).

The test system of data set [1] is HCT-116. Kind of data set: Antiproliferative activity against human HCT116 cells assessed as inhibition of cell viability at 10 uM after 48 hrs by MTT assay relative to control. Type of data set: functional. (In general: Formazan colour is commonly taken as a measure of viable cells.)
The nature of data set [2]: Lipophilicity, log P of the compound. The settings on record: octanol/water. The class given is physicochemical.
Data set [3] deals with MDA-MB-231. Kind of data set: Antiproliferative activity against human MDA-MB-231 cells assessed as inhibition of cell viability at 10 uM after 48 hrs by MTT assay relative to control. The class given is functional.
Data set [4] relates to SW480. In words: Antiproliferative activity against human SW480 cells assessed as inhibition of cell viability after 48 hrs by MTT assay. The class given is functional, cell-based. The settings on record: SW480, 48 h.
The subject of data set [5] is MDA-MB-231. Kind of data set: Antiproliferative activity against human MDA-MB-231 cells assessed as inhibition of cell viability after 48 hrs by MTT assay. Type of data set: functional, cell-based. The settings on record: MDA-MB-231, 48 h.
Data set [6] concerns SW480. In words: Antiproliferative activity against human SW480 cells assessed as inhibition of cell viability at 10 uM after 48 hrs by MTT assay relative to control. The class given is functional.
Data set [7] has as its system HCT-116. In words: Antiproliferative activity against human HCT-116 cells assessed as inhibition of cell viability after 48 hrs by MTT assay. Type of data set: functional, cell-based. The settings on record: HCT-116, 48 h.
For the next data set, the system named is L3.6pl. Kind of data set: Antiproliferative activity against human L3.6 cells assessed as inhibition of cell viability at 10 uM after 48 hrs by MTT assay relative to control. The class given is functional.
The test system of data set [8] is MDA-MB-231. In words: Induction of apoptosis in human MDA-MB-231 cells assessed as apoptotic cells at 10 uM measured after 24 hrs by annexinV-FITC/propidium iodide staining based flow cytometry analysis (reference value: 2.49%). Type of data set: functional. A general note: Flow cytometry measures light scatter and fluorescence of single cells or particles in a stream.

The target of data set [9] is Signal transducer and activator of transcription 3 (Homo sapiens) (UniProt P40763). Kind of data set: Inhibition of STAT3 promoter activity in human MDA-MB-231 cells at 1 uM incubated for 24 hrs by dual luciferase reporter assay. The class given is cell-based.
Signal transducer and activator of transcription 3 (Homo sapiens), sequence (P40763 whole entry): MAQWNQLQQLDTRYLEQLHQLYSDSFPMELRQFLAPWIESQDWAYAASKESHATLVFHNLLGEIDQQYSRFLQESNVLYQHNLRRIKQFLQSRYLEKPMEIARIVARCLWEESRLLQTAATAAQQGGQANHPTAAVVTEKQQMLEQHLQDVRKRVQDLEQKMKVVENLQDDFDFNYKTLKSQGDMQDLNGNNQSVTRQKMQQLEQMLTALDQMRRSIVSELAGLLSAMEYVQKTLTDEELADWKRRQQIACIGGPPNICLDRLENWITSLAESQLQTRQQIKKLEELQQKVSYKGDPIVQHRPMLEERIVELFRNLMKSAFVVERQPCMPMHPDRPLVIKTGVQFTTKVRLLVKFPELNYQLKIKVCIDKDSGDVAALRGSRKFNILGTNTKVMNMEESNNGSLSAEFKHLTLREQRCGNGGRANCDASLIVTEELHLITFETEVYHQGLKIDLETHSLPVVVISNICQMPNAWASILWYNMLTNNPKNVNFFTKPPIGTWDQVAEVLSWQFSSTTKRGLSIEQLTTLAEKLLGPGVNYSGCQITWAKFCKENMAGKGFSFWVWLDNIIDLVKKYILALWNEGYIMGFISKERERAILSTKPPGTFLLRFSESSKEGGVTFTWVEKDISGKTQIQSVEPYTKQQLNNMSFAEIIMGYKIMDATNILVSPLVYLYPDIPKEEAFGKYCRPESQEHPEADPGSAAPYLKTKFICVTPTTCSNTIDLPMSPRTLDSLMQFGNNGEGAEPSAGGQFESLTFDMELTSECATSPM
Data set [10] concerns MDA-MB-231. Kind of data set: Inhibition of human MDA-MB-231 cells migration a 1000 nM after 24 hrs by crystal violet staining based transwell migration assay. The class given is functional, cell-based.

Structures are written as SMILES. Activity calls are given as the source filed them. The rule behind the calls is not given here. Where only a bound is given, the exact number is not on record here.

For orientation: inhibition means the drop in the measured response relative to a control, in per cent. The term logP denotes the decadic logarithm of the partition coefficient of the neutral form, usually between octanol and water. Low values mean a more hydrophilic compound, high ones a more lipophilic compound. One may read the IC50 as the point on the concentration scale where inhibition reaches its midpoint. As to `COc1cc(NC(=O)c2cccc(S(N)(=O)=O)c2)c(C(=O)O)cc1OC`, the inhibition at 10 µM in the data set with HCT-116 [1] stood at 22.1%; in the data set with MDA-MB-231 [3], 52.1%; in the data set with SW480 [6], 22.9%; in the data set with L3.6pl, 23.3%. Moreover, the lipophilicity (logP) in data set [2] was 0.37. For the same molecule, the IC50 in the data set on SW480 [4] is > 20 µM; in the data set with MDA-MB-231 [5], 17.9 µM; with HCT-116 [7] it was > 20 µM.
Turning to `NS(=O)(=O)c1cccc(NC(=O)c2ccc(Cl)c(S(N)(=O)=O)c2)c1`, the inhibition at 10 µM in the data set on HCT-116 [1] stood at 52.2%; in the data set on MDA-MB-231 [3], 52.8%; in the data set on SW480 [6], 34.3%; with L3.6pl, 12.1%. Moreover, in data set [2], the logP is 1.19. Further, the IC50 in the data set on SW480 [4] was > 20 µM; in the data set with MDA-MB-231 [5], 11.9 µM; in the data set on HCT-116 [7], 17.2 µM.
As to `O=C(Nc1ccc([N+](=O)[O-])cc1Cl)c1cc(Cl)ccc1O` [NICLOSAMIDE], the inhibition at 10 µM in the data set on HCT-116 [1] was 73.8%; in the data set with MDA-MB-231 [3], 91.5%; with SW480 [6] it was 76.8%; in the data set on L3.6pl, 66.2%. The molecule further came in with a logP in data set [2] of 3.17. Further, the Activity with MDA-MB-231 [8] came out at 19.91%. Moreover, the IC50 in the data set with MDA-MB-231 [5] was found to be 0.8 µM. Further, in [9], the inhibition was 88.2%. Besides, in the data set on MDA-MB-231 [10], the inhibition result is “Active”.
Take `COc1cc(NC(=O)c2cccc(S(N)(=O)=O)c2)cc(OC)c1OC`: the inhibition at 10 µM in the data set on HCT-116 [1] was 57.7%; in the data set with MDA-MB-231 [3], 59.4%; in the data set on SW480 [6], 26.9%; in the data set on L3.6pl, 19.5%. This molecule displayed a logP in data set [2] of 0.79. Also, the figures for the IC50 in the data set on SW480 [4], with MDA-MB-231 [5] and in the data set on HCT-116 [7] were > 20 µM, 12.7 µM and 10.7 µM, respectively.
Take `COc1cccc(NC(=O)c2cccc(S(N)(=O)=O)c2)c1`: the inhibition at 10 µM in the data set with HCT-116 [1] was 51.4%; in the data set on MDA-MB-231 [3], 57.6%; in the data set with SW480 [6], 28.3%; with L3.6pl, 15.2%. Besides, the logP in data set [2] turned out to be 0.96. For the same molecule, the values for the IC50 in the data set with SW480 [4], in the data set with MDA-MB-231 [5] and with HCT-116 [7] were > 20 µM, 13.6 µM and 11.2 µM, respectively.
Turning to `COc1cccc(CNC(=O)c2ccc(Cl)c(S(N)(=O)=O)c2)c1`, the inhibition at 10 µM in the data set on HCT-116 [1] was determined as 64.2%; with MDA-MB-231 [3], 36.3%; with SW480 [6] it was 37.7%; in the data set with L3.6pl, 19.4%. The same molecule came in with a logP in [2] of 1.34. The IC50 in the data set on SW480 [4] is > 20 µM; in the data set on MDA-MB-231 [5], > 20 µM; in the data set on HCT-116 [7] it was 18.6 µM.
For the molecule `CC(C)(C)OC(=O)c1ccc(NC(=O)c2cccc(S(N)(=O)=O)c2)cc1`, the inhibition at 10 µM in the data set on HCT-116 [1] came out at 79.3%; in the data set with MDA-MB-231 [3], 91.1%; in the data set on SW480 [6] it was 55.4%; in the data set with L3.6pl it was 31.2%. The molecule also yielded a logP in [2] of 1.54. Besides, the IC50 in the data set on MDA-MB-231 [5] turned out to be 0.7 µM; in the data set on HCT-116 [7], 9.82 µM.
With `NS(=O)(=O)c1cc(C(=O)Nc2ccc([N+](=O)[O-])cc2Cl)ccc1Cl`, the inhibition at 10 µM was determined as 49.5% in the data set on HCT-116 [1], 56.3% in the data set with MDA-MB-231 [3], 38.2% in the data set on SW480 [6] and 12.3% in the data set on L3.6pl. In data set [2], this molecule had a logP of 2.73. For the same molecule, the IC50 in the data set with SW480 [4] was > 20 µM; in the data set on MDA-MB-231 [5], 14.3 µM; in the data set with HCT-116 [7] it was 19.1 µM.
Consider `NS(=O)(=O)c1cc(C(=O)Nc2ccc(C(F)(F)F)cc2)ccc1Cl`, for which the inhibition at 10 µM stood at 55.4% with HCT-116 [1], 27.3% with MDA-MB-231 [3], 47.4% in the data set on SW480 [6] and 29.6% in the data set with L3.6pl. In addition, in [2], the logP is 2.76. The values for the IC50 in the data set with SW480 [4], with MDA-MB-231 [5] and in the data set on HCT-116 [7] were > 20 µM, 7.32 µM and 10.8 µM, respectively.
With `NS(=O)(=O)c1cc(C(=O)NCc2cccc(Cl)c2Cl)ccc1Cl`, the inhibition at 10 µM with HCT-116 [1] was found to be 70.4%; in the data set with MDA-MB-231 [3], 51.5%; in the data set on SW480 [6] it was 19.6%; in the data set with L3.6pl, 11.6%. The molecule further came in with a logP in [2] of 2.97. Besides, the IC50 with SW480 [4] is > 20 µM; in the data set on MDA-MB-231 [5], > 20 µM; with HCT-116 [7], 9.62 µM.
Regarding `COc1ccccc1NC(=O)c1cccc(S(N)(=O)=O)c1`, the inhibition at 10 µM in the data set with HCT-116 [1] was 40.3%; in the data set on MDA-MB-231 [3], 27.1%; in the data set on SW480 [6], 18.2%; in the data set with L3.6pl it was 9.7%.
The matching figures for `COc1ccccc1C(=O)NS(=O)(=O)c1cc(C(=O)Nc2cc(OC)c(OC)c(OC)c2)ccc1Cl`: 16.2%, 13.1%, 33.9% and -18.3%.
Turning to `COc1ccccc1CNC(=O)c1ccc(Cl)c(S(N)(=O)=O)c1`, the inhibition at 10 µM was 50% in the data set on HCT-116 [1], 35% in the data set on MDA-MB-231 [3], 42.8% in the data set with SW480 [6] and 17.3% in the data set on L3.6pl. This molecule also registered a lipophilicity (logP) in data set [2] of 1.77. In addition, the IC50 in the data set on SW480 [4], with MDA-MB-231 [5] and in the data set on HCT-116 [7] was > 20 µM throughout.
